Source: the NIST ThermoML archive (doi:10.1016/j.tca.2014.05.028)
Numbers after ± are expanded uncertainties.

Assay: xn = mol fraction of the nth substance listed
Details: 101 kPa, Liquid; for viscosity: Falling or rolling sphere viscometry; for mass density: Vibrating tube method

Question: Which viscosity (323.15 K, x1 = 0.0315) does the source give for CCC[N+]1(C)CCCC1.[Br-] [1-methyl-1-propylpyrrolidinium bromide] + O here?
Answer: 0.865 ± 0.052 mPa·s

Question: What about the viscosity (323.15 K, x1 = 0.0664) of the same compound?
Answer: 1.431 ± 0.087 mPa·s

Question: And the viscosity (323.15 K, x1 = 0.0983)?
Answer: 2.372 ± 0.14 mPa·s

Question: What about the viscosity (323.15 K, x1 = 0.1376) of the same compound?
Answer: 3.542 ± 0.21 mPa·s

Question: What about the viscosity (323.15 K, x1 = 0.1685) of the same compound?
Answer: 4.937 ± 0.3 mPa·s

Question: And the viscosity (323.15 K, x1 = 0.2138)?
Answer: 7.49 ± 0.45 mPa·s

Question: What about the viscosity (323.15 K, x1 = 0.2382) of the same compound?
Answer: 9.11 ± 0.55 mPa·s

Question: And the viscosity (323.15 K, x1 = 0.27)?
Answer: 11.75 ± 0.71 mPa·s

Question: And the viscosity (323.15 K, x1 = 0.3143)?
Answer: 15.69 ± 0.95 mPa·s

Question: And the viscosity (323.15 K, x1 = 0.3535)?
Answer: 20.44 ± 1.2 mPa·s

Question: And the mass density (323.15 K, x1 = 0.0315)?
Answer: 1048.87 ± 0.39 kg/m3

Question: What about the mass density (323.15 K, x1 = 0.0664) of the same compound?
Answer: 1097.37 ± 0.33 kg/m3

Question: And the mass density (323.15 K, x1 = 0.0983)?
Answer: 1131.54 ± 0.29 kg/m3

Question: What about the mass density (323.15 K, x1 = 0.1376) of the same compound?
Answer: 1161.28 ± 0.28 kg/m3

Question: What about the mass density (323.15 K, x1 = 0.1685) of the same compound?
Answer: 1179.46 ± 0.27 kg/m3

Question: And the mass density (323.15 K, x1 = 0.2138)?
Answer: 1199.83 ± 0.29 kg/m3

Question: And the mass density (323.15 K, x1 = 0.2382)?
Answer: 1208.53 ± 0.3 kg/m3

Question: What about the mass density (323.15 K, x1 = 0.27) of the same compound?
Answer: 1218.61 ± 0.31 kg/m3

Question: And the mass density (323.15 K, x1 = 0.3143)?
Answer: 1228.44 ± 0.34 kg/m3

Question: What about the mass density (323.15 K, x1 = 0.3535) of the same compound?
Answer: 1235.27 ± 0.37 kg/m3

Question: What about the mass density (323.15 K, x1 = 1) of the same compound?
Answer: 1240 ± 1.4 kg/m3

Question: What about the viscosity (328.15 K, x1 = 0.0315) of the same compound?
Answer: 0.771 ± 0.047 mPa·s

Question: What about the viscosity (328.15 K, x1 = 0.0664) of the same compound?
Answer: 1.254 ± 0.076 mPa·s

Question: What about the viscosity (328.15 K, x1 = 0.0983) of the same compound?
Answer: 2.085 ± 0.13 mPa·s

Question: And the viscosity (328.15 K, x1 = 0.1376)?
Answer: 3.021 ± 0.18 mPa·s

Question: What about the viscosity (328.15 K, x1 = 0.1685) of the same compound?
Answer: 4.183 ± 0.25 mPa·s

Question: What about the viscosity (328.15 K, x1 = 0.2138) of the same compound?
Answer: 6.287 ± 0.38 mPa·s

Question: And the viscosity (328.15 K, x1 = 0.2382)?
Answer: 7.586 ± 0.46 mPa·s

Question: And the viscosity (328.15 K, x1 = 0.27)?
Answer: 9.732 ± 0.59 mPa·s

Question: What about the viscosity (328.15 K, x1 = 0.3143) of the same compound?
Answer: 12.85 ± 0.78 mPa·s

Question: And the viscosity (328.15 K, x1 = 0.3535)?
Answer: 16.54 ± 1 mPa·s

Question: What about the mass density (328.15 K, x1 = 0.0315) of the same compound?
Answer: 1045.65 ± 0.39 kg/m3

Question: What about the mass density (328.15 K, x1 = 0.0664) of the same compound?
Answer: 1094.2 ± 0.33 kg/m3

Question: And the mass density (328.15 K, x1 = 0.0983)?
Answer: 1128.16 ± 0.29 kg/m3

Question: And the mass density (328.15 K, x1 = 0.1376)?
Answer: 1157.76 ± 0.28 kg/m3

Question: What about the mass density (328.15 K, x1 = 0.1685) of the same compound?
Answer: 1175.88 ± 0.27 kg/m3

Question: And the mass density (328.15 K, x1 = 0.2138)?
Answer: 1196.26 ± 0.29 kg/m3

Question: And the mass density (328.15 K, x1 = 0.2382)?
Answer: 1205 ± 0.29 kg/m3

Question: What about the mass density (328.15 K, x1 = 0.27) of the same compound?
Answer: 1215.12 ± 0.31 kg/m3

Question: And the mass density (328.15 K, x1 = 0.3143)?
Answer: 1225.02 ± 0.34 kg/m3

Question: And the mass density (328.15 K, x1 = 0.3535)?
Answer: 1231.95 ± 0.36 kg/m3

Question: What about the mass density (328.15 K, x1 = 1) of the same compound?
Answer: 1236.08 ± 1.4 kg/m3

Question: What about the viscosity (333.15 K, x1 = 0.0315) of the same compound?
Answer: 0.695 ± 0.042 mPa·s

Question: What about the viscosity (333.15 K, x1 = 0.0664) of the same compound?
Answer: 1.112 ± 0.067 mPa·s

Question: What about the viscosity (333.15 K, x1 = 0.0983) of the same compound?
Answer: 1.841 ± 0.11 mPa·s

Question: What about the viscosity (333.15 K, x1 = 0.1376) of the same compound?
Answer: 2.61 ± 0.16 mPa·s

Question: What about the viscosity (333.15 K, x1 = 0.1685) of the same compound?
Answer: 3.597 ± 0.22 mPa·s

Question: What about the viscosity (333.15 K, x1 = 0.2138) of the same compound?
Answer: 5.348 ± 0.32 mPa·s

Question: What about the viscosity (333.15 K, x1 = 0.2382) of the same compound?
Answer: 6.425 ± 0.39 mPa·s

Question: What about the viscosity (333.15 K, x1 = 0.27) of the same compound?
Answer: 8.189 ± 0.5 mPa·s

Question: What about the viscosity (333.15 K, x1 = 0.3143) of the same compound?
Answer: 10.73 ± 0.65 mPa·s

Question: And the viscosity (333.15 K, x1 = 0.3535)?
Answer: 13.7 ± 0.83 mPa·s

Question: And the mass density (333.15 K, x1 = 0.0315)?
Answer: 1041.46 ± 0.38 kg/m3

Question: What about the mass density (333.15 K, x1 = 0.0664) of the same compound?
Answer: 1090.9 ± 0.33 kg/m3

Question: What about the mass density (333.15 K, x1 = 0.0983) of the same compound?
Answer: 1124.72 ± 0.29 kg/m3

Question: And the mass density (333.15 K, x1 = 0.1376)?
Answer: 1154.2 ± 0.28 kg/m3

Question: What about the mass density (333.15 K, x1 = 0.1685) of the same compound?
Answer: 1172.28 ± 0.27 kg/m3

Question: What about the mass density (333.15 K, x1 = 0.2138) of the same compound?
Answer: 1192.68 ± 0.29 kg/m3

Question: And the mass density (333.15 K, x1 = 0.2382)?
Answer: 1201.44 ± 0.29 kg/m3

Question: What about the mass density (333.15 K, x1 = 0.27) of the same compound?
Answer: 1211.61 ± 0.31 kg/m3

Question: And the mass density (333.15 K, x1 = 0.3143)?
Answer: 1221.59 ± 0.33 kg/m3

Question: And the mass density (333.15 K, x1 = 0.3535)?
Answer: 1228.68 ± 0.36 kg/m3

Question: And the mass density (333.15 K, x1 = 1)?
Answer: 1232.19 ± 1.4 kg/m3

Question: What about the viscosity (338.15 K, x1 = 0.0315) of the same compound?
Answer: 0.64 ± 0.039 mPa·s

Question: What about the viscosity (338.15 K, x1 = 0.0664) of the same compound?
Answer: 1.01 ± 0.061 mPa·s

Question: What about the viscosity (338.15 K, x1 = 0.0983) of the same compound?
Answer: 1.651 ± 0.1 mPa·s

Question: What about the viscosity (338.15 K, x1 = 0.1376) of the same compound?
Answer: 2.311 ± 0.14 mPa·s

Question: And the viscosity (338.15 K, x1 = 0.1685)?
Answer: 3.174 ± 0.19 mPa·s

Question: And the viscosity (338.15 K, x1 = 0.2138)?
Answer: 4.677 ± 0.28 mPa·s

Question: What about the viscosity (338.15 K, x1 = 0.2382) of the same compound?
Answer: 5.592 ± 0.34 mPa·s

Question: What about the viscosity (338.15 K, x1 = 0.27) of the same compound?
Answer: 7.083 ± 0.43 mPa·s

Question: And the viscosity (338.15 K, x1 = 0.3143)?
Answer: 9.191 ± 0.56 mPa·s

Question: And the viscosity (338.15 K, x1 = 0.3535)?
Answer: 11.65 ± 0.71 mPa·s

Question: What about the mass density (338.15 K, x1 = 0.0315) of the same compound?
Answer: 1036.23 ± 0.38 kg/m3

Question: What about the mass density (338.15 K, x1 = 0.0664) of the same compound?
Answer: 1087.31 ± 0.33 kg/m3

Question: And the mass density (338.15 K, x1 = 0.0983)?
Answer: 1121.23 ± 0.29 kg/m3

Question: What about the mass density (338.15 K, x1 = 0.1376) of the same compound?
Answer: 1150.6 ± 0.27 kg/m3

Question: And the mass density (338.15 K, x1 = 0.1685)?
Answer: 1168.66 ± 0.27 kg/m3

Question: And the mass density (338.15 K, x1 = 0.2138)?
Answer: 1189.07 ± 0.28 kg/m3

Question: What about the mass density (338.15 K, x1 = 0.2382) of the same compound?
Answer: 1197.87 ± 0.29 kg/m3

Question: What about the mass density (338.15 K, x1 = 0.27) of the same compound?
Answer: 1208.09 ± 0.31 kg/m3

Question: What about the mass density (338.15 K, x1 = 0.3143) of the same compound?
Answer: 1218.14 ± 0.33 kg/m3

Question: And the mass density (338.15 K, x1 = 0.3535)?
Answer: 1225.35 ± 0.36 kg/m3

Question: And the mass density (338.15 K, x1 = 1)?
Answer: 1228.32 ± 1.3 kg/m3

Question: And the viscosity (343.15 K, x1 = 0.0315)?
Answer: 0.574 ± 0.035 mPa·s

Question: What about the viscosity (343.15 K, x1 = 0.0664) of the same compound?
Answer: 0.881 ± 0.053 mPa·s

Question: And the viscosity (343.15 K, x1 = 0.0983)?
Answer: 1.326 ± 0.08 mPa·s

Question: And the viscosity (343.15 K, x1 = 0.1376)?
Answer: 1.931 ± 0.12 mPa·s

Question: And the viscosity (343.15 K, x1 = 0.1685)?
Answer: 2.763 ± 0.17 mPa·s

Question: And the viscosity (343.15 K, x1 = 0.2138)?
Answer: 4.018 ± 0.24 mPa·s

Question: And the viscosity (343.15 K, x1 = 0.2382)?
Answer: 4.784 ± 0.29 mPa·s

Question: And the viscosity (343.15 K, x1 = 0.27)?
Answer: 6.011 ± 0.36 mPa·s

Question: And the viscosity (343.15 K, x1 = 0.3143)?
Answer: 7.777 ± 0.47 mPa·s

Question: What about the viscosity (343.15 K, x1 = 0.3535) of the same compound?
Answer: 9.762 ± 0.59 mPa·s

Question: What about the mass density (343.15 K, x1 = 0.0315) of the same compound?
Answer: 1030.46 ± 0.38 kg/m3

Question: What about the mass density (343.15 K, x1 = 0.0664) of the same compound?
Answer: 1083.03 ± 0.34 kg/m3

Question: And the mass density (343.15 K, x1 = 0.0983)?
Answer: 1117.67 ± 0.29 kg/m3

Question: And the mass density (343.15 K, x1 = 0.1376)?
Answer: 1146.98 ± 0.27 kg/m3

Question: What about the mass density (343.15 K, x1 = 0.1685) of the same compound?
Answer: 1165.01 ± 0.27 kg/m3

Question: What about the mass density (343.15 K, x1 = 0.2138) of the same compound?
Answer: 1185.45 ± 0.28 kg/m3

Question: And the mass density (343.15 K, x1 = 0.2382)?
Answer: 1194.28 ± 0.29 kg/m3

Question: And the mass density (343.15 K, x1 = 0.27)?
Answer: 1204.56 ± 0.31 kg/m3

Question: And the mass density (343.15 K, x1 = 0.3143)?
Answer: 1214.68 ± 0.33 kg/m3

Question: And the mass density (343.15 K, x1 = 0.3535)?
Answer: 1221.99 ± 0.36 kg/m3

Question: What about the mass density (343.15 K, x1 = 1) of the same compound?
Answer: 1224.48 ± 1.3 kg/m3
